Here are results for two compounds from ChEMBL document CHEMBL3826915, “Design and comparative anticonvulsant activity assessment of CNS-active alkyl-carbamoyl imidazole derivatives” (Bioorg Med Chem, 2016).

Activity calls are given as the source filed them. The calls are words filed in the database; no cut-off is given here.

A short description of data set [1]: Clearance in human. The following applies: in vivo. Type of data set: ADME, organism-based.
Data set [2] in a line: Volume of distribution in human. Type of data set: ADME, organism-based. Conditions: in vivo.
The nature of data set [3]: Half life in human. It is filed as ADME, organism-based. The following applies: in vivo.
The test system of data set [4] is Mus musculus. The data set can be described thus: Anticonvulsant activity in albino CF1 mouse assessed as protection against maximal electroshock-induced seizures at 100 mg/kg, ip after 0.5 hrs. It is filed as functional, organism-based.
The test system of data set [5] is Mus musculus. The data set can be described thus: Anticonvulsant activity in albino CF1 mouse assessed as protection against maximal electroshock-induced seizures at 30 mg/kg, ip after 2 hrs. Type of data set: functional, organism-based. For orientation: In the maximal electroshock model the usual endpoint is tonic extension of the hind limbs.
Data set [6] deals with Mus musculus. As to the kind of experiment: Anticonvulsant activity in albino CF1 mouse assessed as protection against maximal electroshock-induced seizures at 100 mg/kg, ip after 2 hrs. It is filed as functional, organism-based.
Data set [7] relates to Mus musculus. As to the kind of experiment: Anticonvulsant activity in albino CF1 mouse assessed as protection against 32 mA current-induced seizure at 30 mg/kg, ip after 0.5 hrs by 6 Hz psychomotor test. It is filed as functional, organism-based.
For data set [8], the system named is Mus musculus. The data set can be described thus: Anticonvulsant activity in albino CF1 mouse assessed as protection against 32 mA current-induced seizure at 100 mg/kg, ip after 0.5 hrs by 6 Hz psychomotor test. Type of data set: functional, organism-based.
Data set [9] relates to Mus musculus. As to the kind of experiment: Anticonvulsant activity in albino CF1 mouse assessed as protection against 32 mA current-induced seizure at 30 mg/kg, ip after 2 hrs by 6 Hz psychomotor test. Type of data set: functional, organism-based.
Data set [10] deals with Mus musculus. The data set can be described thus: Anticonvulsant activity in albino CF1 mouse assessed as protection against 44 mA current-induced seizure at 100 mg/kg, ip after 0.25 hrs by 6 Hz psychomotor test. Type of data set: functional, organism-based.
Data set [11] concerns Mus musculus. The data set can be described thus: Anticonvulsant activity in albino CF1 mouse assessed as protection against 44 mA current-induced seizure at 100 mg/kg, ip after 2 hrs by 6 Hz psychomotor test. Type of data set: functional, organism-based.
For data set [12], the system named is Mus musculus. The data set can be described thus: Neurotoxicity in albino CF1 mouse assessed as behavioral impairment at 30 mg/kg, ip after 0.5 hrs by rotorod test. Type of data set: toxicity, organism-based. The following applies: in vivo. (In the rotarod test animals must keep their balance on a rotating rod.)
In data set [13] the test system is Mus musculus. As to the kind of experiment: Neurotoxicity in albino CF1 mouse assessed as behavioral impairment at 100 mg/kg, ip after 0.5 hrs by rotorod test. It is filed as toxicity, organism-based. Conditions: in vivo.
Data set [14] relates to Mus musculus. The data set can be described thus: Neurotoxicity in albino CF1 mouse assessed as behavioral impairment at 300 mg/kg, ip after 0.5 hrs by rotorod test. The following applies: in vivo. Type of data set: toxicity, organism-based.
Data set [15] concerns Mus musculus. As to the kind of experiment: Neurotoxicity in albino CF1 mouse assessed as behavioral impairment at 30 mg/kg, ip after 2 hrs by rotorod test. It is filed as toxicity, organism-based. The following applies: in vivo.
Data set [16] concerns Mus musculus. As to the kind of experiment: Neurotoxicity in albino CF1 mouse assessed as behavioral impairment at 100 mg/kg, ip after 2 hrs by rotorod test. Type of data set: toxicity, organism-based. The following applies: in vivo.
Data set [17] deals with Mus musculus. As to the kind of experiment: Neurotoxicity in albino CF1 mouse assessed as behavioral impairment at 100 mg/kg, ip after 0.25 hrs by rotorod test. Type of data set: toxicity, organism-based. Conditions: in vivo.
The test system of data set [18] is Mus musculus. As to the kind of experiment: Neurotoxicity in albino CF1 mouse assessed as behavioral impairment at 100 mg/kg, ip after 1 hr by rotorod test. It is filed as toxicity, organism-based. The following applies: in vivo.
The test system of data set [19] is Rattus norvegicus. The data set can be described thus: Anticonvulsant activity in albino Sprague-Dawley rat assessed as protection against maximal electroshock-induced seizures at 30 mg/kg, po after 0.25 hrs. It is filed as functional, organism-based.
For data set [20], the system named is Rattus norvegicus. As to the kind of experiment: Anticonvulsant activity in albino Sprague-Dawley rat assessed as protection against maximal electroshock-induced seizures at 30 mg/kg, po after 0.5 hrs. It is filed as functional, organism-based.
Data set [21] has as its system Rattus norvegicus. The data set can be described thus: Anticonvulsant activity in albino Sprague-Dawley rat assessed as protection against maximal electroshock-induced seizures at 30 mg/kg, po after 1 hr. It is filed as functional, organism-based.
Data set [22] has as its system Rattus norvegicus. As to the kind of experiment: Anticonvulsant activity in albino Sprague-Dawley rat assessed as protection against maximal electroshock-induced seizures at 30 mg/kg, po after 2 hrs. It is filed as functional, organism-based.
Data set [23] has as its system Rattus norvegicus. As to the kind of experiment: Neurotoxicity in albino Sprague-Dawley rat assessed as behavioral impairment at 30 mg/kg, ip after 0.25 hrs by rotorod test. It is filed as toxicity, organism-based. Conditions: in vivo.
Data set [24] concerns Rattus norvegicus. The data set can be described thus: Neurotoxicity in albino Sprague-Dawley rat assessed as behavioral impairment at 30 mg/kg, po after 0.25 hrs by rotorod test. Conditions: in vivo. Type of data set: toxicity, organism-based.
In data set [25] the test system is Rattus norvegicus. The data set can be described thus: Neurotoxicity in albino Sprague-Dawley rat assessed as behavioral impairment at 30 mg/kg, ip after 0.5 hrs by rotorod test. It is filed as toxicity, organism-based. Conditions: in vivo.
Data set [26] deals with Rattus norvegicus. The data set can be described thus: Neurotoxicity in albino Sprague-Dawley rat assessed as behavioral impairment at 30 mg/kg, po after 0.5 hrs by rotorod test. Type of data set: toxicity, organism-based. The following applies: in vivo.
For data set [27], the system named is Rattus norvegicus. The data set can be described thus: Neurotoxicity in albino Sprague-Dawley rat assessed as behavioral impairment at 30 mg/kg, ip after 1 hr by rotorod test. Conditions: in vivo. Type of data set: toxicity, organism-based.
The test system of data set [28] is Rattus norvegicus. The data set can be described thus: Neurotoxicity in albino Sprague-Dawley rat assessed as behavioral impairment at 30 mg/kg, po after 1 hr by rotorod test. Type of data set: toxicity, organism-based. Conditions: in vivo.
The test system of data set [29] is Rattus norvegicus. As to the kind of experiment: Neurotoxicity in albino Sprague-Dawley rat assessed as behavioral impairment at 30 mg/kg, ip after 2 hrs by rotorod test. Type of data set: toxicity, organism-based. Conditions: in vivo.
Data set [30] concerns Rattus norvegicus. The data set can be described thus: Neurotoxicity in albino Sprague-Dawley rat assessed as behavioral impairment at 30 mg/kg, po after 2 hrs by rotorod test. Type of data set: toxicity, organism-based. Conditions: in vivo.
Data set [31] has as its system Rattus norvegicus. As to the kind of experiment: Anticonvulsant activity in ip dosed albino Sprague-Dawley rat assessed as protection against maximal electroshock-induced seizures. It is filed as functional.
In data set [32] the test system is Rattus norvegicus. The data set can be described thus: Anticonvulsant activity in ip dosed albino Sprague-Dawley rat assessed as protection against maximal electroshock-induced seizures by measuring time to peak effect. It is filed as functional.
The nature of data set [33]: Protective index, ratio of TD50 for neurotoxicity in ip dosed albino Sprague-Dawley rat to ED50 for anticonvulsant activity in ip dosed maximal electroshock-induced seizure albino Sprague-Dawley rat model. The following applies: in vivo, read-out: Ratio TD50/ED50. Type of data set: toxicity, organism-based.
Data set [34] has as its system Rattus norvegicus. The data set can be described thus: Anticonvulsant activity in ip dosed albino Sprague-Dawley rat assessed as protection against subcutaneous metrazol-induced seizures. It is filed as functional.
Data set [35] is described as follows: Protective index, ratio of TD50 for neurotoxicity in ip dosed albino Sprague-Dawley rat to ED50 for anticonvulsant activity in ip dosed subcutaneous metrazol-induced seizure albino Sprague-Dawley rat model. It is filed as toxicity, organism-based. Conditions: in vivo, read-out: Ratio TD50/ED50.
Data set [36] in a line: Neurotoxicity in ip dosed albino Sprague-Dawley rat assessed as motor impairment by rotorod test. Type of data set: toxicity, organism-based. The following applies: in vivo.
Data set [37] has as its system Rattus norvegicus. The data set can be described thus: Anticonvulsant activity in ip dosed albino Sprague-Dawley rat assessed as protection against subcutaneous metrazol-induced seizures by measuring time to peak effect. Type of data set: functional.
The subject of data set [38] is Mus musculus. The data set can be described thus: Anticonvulsant activity in ip dosed albino CF1 mouse assessed as protection against maximal electroshock-induced seizures. Type of data set: functional.
Data set [39] concerns Mus musculus. As to the kind of experiment: Anticonvulsant activity in ip dosed albino CF1 mouse assessed as protection against subcutaneous metrazol-induced seizures. Type of data set: functional.
The subject of data set [40] is Mus musculus. As to the kind of experiment: Anticonvulsant activity in ip dosed albino CF1 mouse assessed as protection against maximal electroshock-induced seizures by measuring time to peak effect. It is filed as functional.
The subject of data set [41] is Mus musculus. The data set can be described thus: Anticonvulsant activity in ip dosed albino CF1 mouse assessed as protection against subcutaneous metrazol-induced seizures by measuring time to peak effect. Type of data set: functional.
The subject of data set [42] is Mus musculus. The data set can be described thus: Anticonvulsant activity in ip dosed albino CF1 mouse assessed as protection against 6 Hz current-induced seizures by psychomotor test. Type of data set: functional.
The subject of data set [43] is Mus musculus. The data set can be described thus: Anticonvulsant activity in ip dosed albino CF1 mouse assessed as protection against 6 Hz current-induced seizure by measuring time to peak effect. Type of data set: functional.
Data set [44] in a line: Protective index, ratio of TD50 for neurotoxicity in ip dosed albino CF1 mouse to ED50 for anticonvulsant activity in ip dosed 6 Hz current-induced seizure albino CF1 mouse model. The following applies: in vivo.
Data set [45] is described as follows: Neurotoxicity in ip dosed albino CF1 mouse assessed as motor impairment by rotorod test. Type of data set: toxicity, organism-based. Conditions: in vivo.

The term clearance denotes a measure of how efficiently the substance is removed, as volume per time. As usually defined, the Vd is the apparent volume that relates the amount in the body to the concentration in plasma or blood. High values mean wide distribution into tissue, low ones little distribution into tissue. By half-life is commonly meant the time in which the quantity being followed falls by half. A high value points to slow loss. In data set [1], `OC(Cn1ccnc1)c1ccc(CCc2ccccc2)cc1` (stereo not given) [DENZIMOL] had a clearance of 5 mL/min/kg. This compound also yielded a Vd in data set [2] of 3 L/kg. The compound also showed a half-life in data set [3] of 5 h.
One may read the ED50 as the dose that gives a 50% effect, or the effect in half of the subjects. As usually defined, the TD50 is the dose at which the toxic effect under study appears in half of the subjects. Turning to `CC(COC(=O)NCCCn1ccnc1)CC(C)(C)C` (stereo not given), the result in data set [4], in [6], in data set [8] and in [10] was Active. Also, the outcome in data set [5], in [7], in [9], in data set [11], in data set [19] and in data set [20] was inactive. The result in [21] and in data set [22] was inactive. Besides, the Activity result in data set [12] is “Non-toxic”; in data set [13], “Toxic”; in data set [14] it was “Toxic”; in data set [15], “Non-toxic”; in [16] it was “Non-toxic”; in data set [17], “Toxic”. Besides, the Activity result in [18], in data set [23], in [24], in data set [25], in [26] and in data set [27] was “Non-toxic” in each case. The Activity entry in [28], in [29] and in data set [30] was “Non-toxic” throughout. Further, the ED50 in data set [31] was 17 mg/kg; in [34] it was > 70 mg/kg; in data set [42] it was 44 mg/kg. The Time in [32] was 0.25 h; in [37], 0.25 h; in [40], 0.5 h; in [41], 0.5 h; in data set [43], 0.5 h. The selectivity ratio came to 4.1 in data set [33], 1 in data set [35] and 1.4 in data set [44]. In addition, the TD50 in data set [36] worked out at 70 mg/kg; in data set [45] it was 60 mg/kg. For the same compound, the ED50 result in [38] and in data set [39] was “inactive” in each case.
